# Reference: paper PMC11306077, “Diterpenoids target SARS-CoV-2 RdRp from the roots of Euphorbia fischeriana Steud” (Frontiers in Plant Science, 2024)
# Molecular target: T1, SARS-CoV-2 RdRp (RNA-dependent RNA polymerase, NSP12) (Severe acute respiratory syndrome coronavirus 2, UniProt P0DTD1)
# T1 construct: gene rep
# Test: microscale thermophoresis (MST)
# Format: binding
smiles,measurement,value
"C[C@H]1C(=O)CC[C@]2(C)[C@@H]1CC[C@@]13CC[C@@H]([C@@H](O)[C@H]12)[C@]1(COC(C)(C)O1)C3 [compound 1, (4R,5S,8S,9S,10R,11S,12S,16S)-ent-11α-hydroxy-16α,17-acetonide-19-noratisan-3-one]",Kd,31.1 µM
